From patent US20230257385A1, “SALT AND SOLID FORMS OF TABERNANTHALOG” (priority 2021, published 2023)

Assays:
Assay type in all cases: physicochemical
[1] = Binary solvent evaporation crystallisation of sorbate salt (Example 10, Experiment 6); conditions: sorbate salt Form A evaporated from MeOH (10 vol) plus solvent B (5 vol), one solvent B per sample
From the text: Each vial was capped with aluminium foil, pierced, and allowed to stand undisturbed until the evaporation is completed.

[2] = Suspension equilibration (competitive; ageing cycle; drying of wet pellets), relative stability of forms
Experimental: FIG. 94 depicts the XRPD overlay of, form top to bottom, a mixture of Tabernanthalog·0.5 Fumarate and Tabernanthalog·Fumarate equilibrated in acetonitrile at 20° C., a mixture of Tabernanthalog·0.5 Fumarate and Tabernanthalog·Fumarate equilibrated in acetonitrile at 40° C. and Tabernanthalog fumarate Pattern 19.
FIG. 283 depicts the timepoints of the suspension equilibration in tBME at 20° C. XRPD diffractogram overlay of, from top to bottom, Sample B-A2 (Form B, Pattern #2a), 8-A4 (Form A, Pattern #6a), 16-A1 (t=24 h, 16-A2 (t=48 h), 16-A3 (t=108 h), 16-A4 (t=192 h) 16-A8 (t=4 weeks).
FIG. 284 depicts the timepoints of the suspension equilibration in tBME at 40° C. XRPD diffractogram overlay of, from top to bottom, Sample B-A2 (Form B, Pattern #2a), 8-A4 (Form A, Pattern #6a), 16-B1 (t=24 h, 16-B2 (t=48 h), 16-B3 (t=108 h), 16-B4 (t=192 h) 16-B8 (t=4 weeks).

[3] = Evaporation screen of the monofumarate salt (Experiment Reference 14); conditions: input Sample Reference 1, Solvent A DMSO, Solvent B: 14-A EtOH; for XRPD crystallinity (wet pellet): 14-B nBuOH (disordered), 14-C water (high background); for XRPD crystallinity (oven dried): 14-B nBuOH, 14-C water
Experimental: Crystallization of the API was examined by changing the composition of the crystallization solvent by evaporation of a volatile diluent. This technique is useful for generating kinetic forms and solvates. Separate portions of the tabernanthalog monofumarate salt (Pattern #1, Sample Reference 1, ca 50 mg, 1.0 wt.) were charged to separate vessels. DMSO (100 μl, 2.0 vol, refer to Table 132) was charged to the relevant vessels and subsequent charges of the appropriate co-solvent (900 μl, 18.0 vol) were made to accomplish dissolution. The vials were covered with an aluminum foil cap and pierced with a single hole, then left to stand at 20° C. After 6 days, gentle nitrogen flux was applied to dryness. The products were analyzed by XRPD and companion analyses, for evidence of alternative crystalline forms.

[4] = Competitive suspension equilibration monofumarate Form A and Form B (Experiment Reference 16); conditions: 16-A at 20 °C, 16-B at 40 °C
Experimental: Competitive suspension equilibration (Form A and Form B) (Experiment Reference 16) a. Experimental Procedure Equimolar quantities of Form A (Pattern #6a, 25.4 mg, 1 wt, 8-A4; (Experiment Reference 8-Sample Reference A4)) and Form B (Pattern #2a, 25.0 mg, 1 wt, Sample B-A2) were suspended in tBME (250 μl, 5.0 vol). The first experiment was agitated at 20° C., (16-A) (Experiment Reference 16-Sample Reference A), while the other was agitated at 40° C. (16-B) (Experiment Reference 16-Sample Reference B). The suspension was monitored by XRPD analysis.
Competitive suspension equilibration of Form A (8-A4) (Experiment Reference 8-Sample Reference A4) versus Form B (Sample B-A2) was performed at 20° C. […] Summary of competitive suspension equilibration between Form A and Form B (16-A (Experiment Reference 16-Sample Reference A) and 16-B (Experiment Reference 16-Sample Reference B)) is provided in Table 153A.

[5] = Vapour diffusion of the monofumarate salt (Experiment Reference 13); conditions: input Sample Reference 1, Solvent A DMSO, Solvent B: 13-B TBME, 13-C water, patterns v. disordered
Experimental: The tabernanthalog monofumarate salt (Sample Reference 1, Pattern #1, 3×75 mg, 1 wt) was weighed out in to 3 separate snap-top vials and DMSO (375 ul, 5 vol) was charged to each vial. Gentle warning was applied to ensure full dissolution and the vials (open) were placed inside amber jars that contained 6 ml of DCM (13-A) (Experiment Reference 13-Sample Reference A), tBME (13-B) (Experiment Reference 13-Sample Reference B) and water (13-C) (Experiment Reference 13-Sample Reference C).
The 3 jars that contained the vials were left standing at 20° C., to allow slow movement of the diffusant solvent from the outer jar into the solvent inside the smaller, open wide-necked vessel and promote crystallization by altering the solvent composition.

[6] = Stability of Tabernanthalog·Sorbate·HemiHFIPA at 75% RH, 20° C. and 40° C.; conditions: 5 days; for HFIPA content after storage / powder pattern after storage: 75% RH, 20° C. and 40° C.; for HFIPA content after storage: 19F NMR; for powder pattern after storage: XRPD; for Outcome: input Experiment 3-Sample A2
Experimental: Stability of the salt (Table 302) at elevated relative humidity was examined at 20 and 40° C., to determine if the HFIPA solvent can be replaced by water to generate the isomorphic hydrate.
Experimental reference: Experiment 3-Sample B1, Experiment 3-Sample C1 Tabernanthalog·Sorbate·HemiHFIPA (Experiment 3-Sample A2, 28.2 mg, 1 wt) was charged into a wide necked solid sample vial, the uncapped vial was placed inside a larger amber jar containing an aqueous NaCl slurry. The amber jar was sealed and left to stand for 5 days. The specimen analysed by XRPD, ^19F NMR, TGA and DSC after 5 days.

[7] = Re-proportionation examination hemifumarate / monofumarate (Example 5, Experiment References 5 and 10)
Experimental: (5-B4; Experiment Reference 5-Sample Reference B4) and 40° C. (5-B5; Experiment Reference 5-Sample Reference B5). The output was analyzed by XRPD (FIG. 94).
Purified water (250 ml, 5 vol) was subsequently added, and the suspension was stirred at 50° C. for ca. 24 h.
Purified water (250 ml, 5 vol) was subsequently added, and the suspension was stirred at 20° C. for ca. 24 h.

[8] = Stability panel of salts, open vial / double-bagged vial, t=5 d and 10 d; conditions: input Form A
From the text: FIG. 797 depicts the overlay of, from top to bottom, XRPD of Experiment 1-Sample A2 (Form A), Experiment 10-Sample A1 (5 days, open vial Pattern #2), Experiment 10-Sample A2 (10 days, open vial, Pattern #2), Experiment 10-Sample B1 (5 days, double-bagged vial, Form A) and Experiment 10-Sample B2 (10 days, double-bagged vial, Pattern #2).

[9] = listed as Tabernanthalog·Sorbate·hemiHFIPA

CC=CC=CC(=O)O.COc1ccc2c3c([nH]c2c1)CCN(C)CC3 [Experiment 6-Sample A]
XRPD (dried under nitrogen) [1]: Pattern #1

CC=CC=CC(=O)O.COc1ccc2c3c([nH]c2c1)CCN(C)CC3 [Experiment 6-Sample C]
XRPD (dried under nitrogen) [1]: Form A

C/C=C/C=C/C(=O)O.COc1ccc2c3c([nH]c2c1)CCN(C)CC3 [Experiment 6-Sample D]
XRPD (dried under nitrogen) [1]: Form A

C/C=C/C=C/C(=O)O.COc1ccc2c3c([nH]c2c1)CCN(C)CC3 [Experiment 6-Sample E]
XRPD (dried under nitrogen) [1]: Form A

COc1ccc2c3c([nH]c2c1)CCN(C)CC3 [Form B]
form change under competitive suspension equilibration conditions ([2]; in the presence of Form A): slowly evolves into Form A

COc1ccc2c3c([nH]c2c1)CCN(C)CC3.O=C(O)/C=C/C(=O)O [Pattern 14-A]
XRPD crystallinity (wet pellet) [3]: (Pattern #23)

COc1ccc2c3c([nH]c2c1)CCN(C)CC3.O=C(O)/C=C/C(=O)O [Pattern 14-B]
XRPD crystallinity (wet pellet) [3]: (Pattern #23)

COc1ccc2c3c([nH]c2c1)CCN(C)CC3.O=C(O)/C=C/C(=O)O [Pattern 14-C]
XRPD crystallinity (wet pellet) [3]: (Pattern #6a)

COc1ccc2c3c([nH]c2c1)CCN(C)CC3.O=C(O)/C=C/C(=O)O [Pattern 16-A]
XRPD (4 weeks, -A8) ([4]; competitive suspension equilibration of Form A and Form B in TBME (5.0 vol), t = 4 weeks): Form A > Form B | XRPD (48 h, -A2) ([4]; competitive suspension equilibration of Form A and Form B in TBME (5.0 vol), t = 48 h): Form A > Form B | XRPD (108 h, -A3) ([4]; competitive suspension equilibration of Form A and Form B in TBME (5.0 vol), t = 108 h): Form A > Form B | XRPD (192 h, -A4) ([4]; competitive suspension equilibration of Form A and Form B in TBME (5.0 vol), t = 192 h): Form A >> Form B

COc1ccc2c3c([nH]c2c1)CCN(C)CC3.O=C(O)/C=C/C(=O)O [Pattern 16-B]
XRPD (24 h, -A1) ([4]; competitive suspension equilibration of Form A (8-A4) and Form B (Sample B-A2) in TBME (5.0 vol), t = 24 h): Form A > Form B

COc1ccc2c3c([nH]c2c1)CCN(C)CC3.O=C(O)/C=C/C(=O)O [Sample 13-B]
XRPD crystallinity (oven dried) [5]: Pattern #24 | XRPD crystallinity (wet pellet) [5]: Pattern #24

COc1ccc2c3c([nH]c2c1)CCN(C)CC3.O=C(O)/C=C/C(=O)O [Sample 13-C]
XRPD crystallinity (oven dried) [5]: Pattern #23 | XRPD crystallinity (wet pellet) [5]: Pattern #23

COc1ccc2c3c([nH]c2c1)CCN(C)CC3.O=C(O)/C=C/C(=O)O [Sample 14-A]
XRPD crystallinity (oven dried) [3]: Pattern 23

COc1ccc2c3c([nH]c2c1)CCN(C)CC3.O=C(O)/C=C/C(=O)O [Sample 14-B]
XRPD crystallinity (oven dried) [3]: Pattern 23

COc1ccc2c3c([nH]c2c1)CCN(C)CC3.O=C(O)/C=C/C(=O)O [Sample 14-C]
XRPD crystallinity (oven dried) [3]: Pattern 6a

C/C=C/C=C/C(=O)O.C/C=C/C=C/C(=O)O.COc1ccc2c3c([nH]c2c1)CCN(C)CC3.COc1ccc2c3c([nH]c2c1)CCN(C)CC3.OC(C(F)(F)F)C(F)(F)F [Tabernanthalog·Sorbate·HemiHFIPA]
HFIPA content after storage [6]: small decrease in HFIPA content | HFIPA content after storage [6, 9]: partial loss of HFIPA | powder pattern after storage [6]: No change in powder pattern observed | powder pattern after storage [6, 9]: No change in the powder pattern was observed

CC=CC=CC(=O)O.CC=CC=CC(=O)O.COc1ccc2c3c([nH]c2c1)CCN(C)CC3.COc1ccc2c3c([nH]c2c1)CCN(C)CC3.OC(C(F)(F)F)C(F)(F)F [Tabernanthalog•Sorbate•hemiHFIPA]
Outcome ([6]; 75% RH 20° C.): HemiHFIPA | Outcome ([6]; 75% RH 40° C.): HemiHFIPA

COc1ccc2c3c([nH]c2c1)CCN(C)CC3 [tabernanthalog hemifumarate]
change of salt stoichiometry during an ageing cycle ([2]; ageing cycle): re-proportionated into the fumarate salt | re-proportionation of the hemi-salt into the monofumarate salt ([7]; Expt. #1: equilibrated in acetonitrile at 20° C., 20 h time point): did not re-proportionate | outcome of competitive equilibration of hemifumarate and monofumarate ([7]; Expt. #2: acetonitrile, 48 h at 20° C. and 18 h at 40° C., XRPD): re-proportionation into the unary-fumarate appeared to be favored over the hemi-fumarate

C/C=C/C=C/C(=O)O.COc1ccc2c3c([nH]c2c1)CCN(C)CC3 [tabernanthalog sorbate salt Form A]
form by XRPD after stability storage ([8]; 5 days, double-bagged vial): Form A | form by XRPD after stability storage ([8]; 5 days, open vial): Pattern #2 | form by XRPD after stability storage ([8]; 10 days, double-bagged vial): Pattern #2
